Experimental data from the supplement of paper PMC10307832.

What was measured:
Test in all cases: relative viability (nuclei count vs DMSO), 5 days (fraction); higher = more cells survive
Phenformin = compound: N=C(N)NC(=N)NCCc1ccccc1 [Phenformin] (anchor plate); conditions: 250 µM
Summary of the method: (§1)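 After an overnight hold at 37 °C, lung cancer cell lines in 1536-well plates were pinned with five library-drug doses (not always all listed), each √10 from the next, on vehicle-anchored plates. The cells stayed 5 days without fresh medium, then a one-step fix, permeabilisation and Hoechst stain preceded 4× imaging and MetaXpress nuclear counts. A plate passed only with control CV under 25% and at least one doubling. Viability is the median, over plates, of treated-well nuclei relative to vehicle-well nuclei.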

Erlotinib = compound: C#Cc1cccc(Nc2ncnc3cc(OCCOC)c(OCCOC)cc23)c1 [Erlotinib]
Summary of the method: as §1

AT9283 = compound: O=C(Nc1c[nH]nc1-c1nc2ccc(CN3CCOCC3)cc2[nH]1)NC1CC1 [AT9283]
Summary of the method: as §1

Cell Line | relative viability (Phenformin) | relative viability (Erlotinib; 0.02 µM) | relative viability (Erlotinib; 0.2 µM) | relative viability (Erlotinib; 0.6325 µM) | relative viability (Erlotinib; 2 µM) | relative viability (AT9283; 0.003 µM) | relative viability (AT9283; 0.03 µM) | relative viability (AT9283; 0.09487 µM) | relative viability (AT9283; 0.3 µM)
NCI-H2085 | 0.724 | 0.932 | 0.851 | 0.843 | 0.699 | 1 | 0.946 | 0.937 | 0.447
NCI-H1915 | 0.359 | 1.07 | 1.01 |  | 0.977 | 0.925 | 0.929 | 0.461 | 0.256
NCI-H1944 | 0.206 |  | 0.72 | 0.916 | 0.594 | 0.903 | 0.629 | 0.367 | 0.268
NCI-H1355 | 0.456 | 0.978 | 0.878 | 0.956 | 0.755 | 0.956 | 0.971 | 0.68 | 0.197
HCC-827 | 0.4 | 0.549 | 0.185 | 0.177 | 0.208 | 0.985 | 0.855 | 0.618 | 0.358
RERF-LC-KJ | 0.42 | 0.947 | 0.879 | 0.871 | 0.716 | 0.986 | 0.667 | 0.431 | 0.27
NCI-H2228 | 0.318 | 0.959 | 1 | 1.07 | 0.871 | 1.08 | 0.769 | 0.33 | 0.187
LK-2 | 0.485 | 0.993 | 0.864 | 1.36 |  | 0.937 | 0.57 | 0.168 | 0.195
NCI-H520 | 0.671 | 1.04 | 0.899 | 1.1 | 1.03 | 0.76 | 0.551 | 0.372 | 0.223
HOP-62 | 0.673 | 1.01 | 0.972 | 1.08 | 1.04 | 1 | 0.771 | 0.393 | 0.273
PC-14 | 0.608 | 0.574 | 0.31 | 0.289 | 0.228 | 1.05 | 0.823 | 0.377 | 0.133
UMC-11 | 0.318 | 0.956 | 0.944 | 1.18 | 0.964 | 0.903 | 0.171 | 0.146 | 0.212
NCI-H2405 | 0.379 | 0.986 | 1 | 1.12 | 0.956 | 1 | 0.965 | 0.519 | 0.256
HARA | 0.46 | 1.04 | 0.707 | 0.823 | 0.466 | 0.859 | 0.446 | 0.166 | 0.171
NCI-H1437 | 0.296 | 1.01 | 1.03 | 1.03 | 0.958 | 0.95 | 0.976 | 0.55 | 0.22
COR-L23 | 0.43 | 1.09 | 1.04 | 1.22 | 0.894 | 1.05 | 0.592 | 0.206 | 0.183
NCI-H1395 | 0.451 | 0.865 | 0.88 | 1.08 | 0.981 | 0.789 | 0.662 | 0.39 | 0.393
NCI-H1650 | 0.465 | 0.739 | 0.756 | 0.838 | 0.671 | 0.933 | 0.788 | 0.447 | 0.3
NCI-H1563 | 0.681 | 1.03 | 0.898 |  | 0.953 | 0.995 | 0.815 | 0.661 | 0.617

Cell Line | relative viability (Phenformin) | relative viability (Erlotinib; 0.02 µM) | relative viability (Erlotinib; 0.2 µM) | relative viability (Erlotinib; 0.6325 µM) | relative viability (Erlotinib; 2 µM) | relative viability (AT9283; 0.003 µM) | relative viability (AT9283; 0.03 µM) | relative viability (AT9283; 0.09487 µM) | relative viability (AT9283; 0.3 µM)
NCI-H358 | 0.359 | 1.01 | 0.631 | 0.547 | 0.308 | 0.863 | 0.2 | 0.192 | 0.158
IA-LM |  | 0.947 | 0.777 | 1.08 | 0.885 | 0.853 | 0.735 | 0.267 | 0.111
EBC-1 |  | 0.977 | 0.988 | 0.978 | 0.897 | 0.969 | 0.289 | 0.164 | 0.165
NCI-H1703 |  | 1.01 | 0.911 | 1.02 | 0.989 | 0.957 | 0.31 | 0.335 | 0.28
NCI-H2170 | 0.439 | 1.02 | 0.996 | 0.872 | 0.656 | 0.991 | 0.864 | 0.471 | 0.197
201T | 0.45 | 0.963 | 0.957 | 0.946 | 0.865 | 0.909 | 0.97 | 0.537 | 0.361
NCI-H2342 | 0.607 | 0.903 | 0.891 | 0.84 | 0.725 | 1.04 | 0.877 | 0.78 | 0.424
CAL-12T | 0.597 | 1 | 0.785 | 0.618 | 0.521 | 1.06 | 0.828 | 0.451 | 0.227
NCI-H1792 | 0.343 | 0.875 | 0.821 | 0.92 | 0.742 | 0.887 | 0.886 | 0.943 | 0.376
NCI-H596 | 0.733 | 0.992 | 0.861 | 0.933 | 0.91 | 0.935 | 0.955 | 0.909 | 0.539
NCI-H1651 | 0.328 | 1.03 | 0.896 | 1.04 | 0.946 | 0.951 | 0.999 | 0.875 | 0.455
NCI-H1793 | 0.401 |  | 0.521 | 0.63 | 0.455 | 0.858 | 1.03 | 0.39 | 0.321
SW 1573 | 0.385 | 1.02 | 0.955 | 1.02 | 0.925 | 0.913 | 0.326 | 0.222 | 0.177
NCI-H460 | 0.529 | 0.994 | 0.959 | 1.05 | 0.96 | 0.985 | 0.931 | 0.542 | 0.21
SW 900 | 0.717 | 1 | 0.803 | 0.863 | 0.65 | 0.755 | 1.01 | 0.626 | 0.358
ChaGo-K-1 | 0.514 | 0.977 | 1.05 | 1.04 | 0.903 | 0.849 | 0.91 | 0.451 | 0.396
EMC-BAC-2 | 0.558 | 0.743 | 1.04 | 1.1 | 0.979 | 0.907 | 0.463 | 0.319 | 0.221
HCC-44 | 0.218 | 0.994 | 0.961 | 1.01 | 0.975 | 0.988 | 1 | 0.614 | 0.335
Calu-6 |  | 1.01 | 0.986 | 1.01 | 0.907 | 1.01 | 0.299 | 0.246 | 0.273
